Measured values reported in BindingDB's records for doi:10.1016/j.vascn.2014.07.002 (University of Oxford, 2014).

Experiments:
[1] = Inhibition of rapid delayed inward rectifying potassium current (IKr) measured using manual patch clamp assay
[2] = biological target: Potassium voltage-gated channel subfamily H member 2 (Homo sapiens, UniProt Q12809); assay: Inhibition of rapid delayed inward rectifying potassium current (IKr) measured using manual patch clamp assay
Chain of Potassium voltage-gated channel subfamily H member 2 (Q12809 whole entry): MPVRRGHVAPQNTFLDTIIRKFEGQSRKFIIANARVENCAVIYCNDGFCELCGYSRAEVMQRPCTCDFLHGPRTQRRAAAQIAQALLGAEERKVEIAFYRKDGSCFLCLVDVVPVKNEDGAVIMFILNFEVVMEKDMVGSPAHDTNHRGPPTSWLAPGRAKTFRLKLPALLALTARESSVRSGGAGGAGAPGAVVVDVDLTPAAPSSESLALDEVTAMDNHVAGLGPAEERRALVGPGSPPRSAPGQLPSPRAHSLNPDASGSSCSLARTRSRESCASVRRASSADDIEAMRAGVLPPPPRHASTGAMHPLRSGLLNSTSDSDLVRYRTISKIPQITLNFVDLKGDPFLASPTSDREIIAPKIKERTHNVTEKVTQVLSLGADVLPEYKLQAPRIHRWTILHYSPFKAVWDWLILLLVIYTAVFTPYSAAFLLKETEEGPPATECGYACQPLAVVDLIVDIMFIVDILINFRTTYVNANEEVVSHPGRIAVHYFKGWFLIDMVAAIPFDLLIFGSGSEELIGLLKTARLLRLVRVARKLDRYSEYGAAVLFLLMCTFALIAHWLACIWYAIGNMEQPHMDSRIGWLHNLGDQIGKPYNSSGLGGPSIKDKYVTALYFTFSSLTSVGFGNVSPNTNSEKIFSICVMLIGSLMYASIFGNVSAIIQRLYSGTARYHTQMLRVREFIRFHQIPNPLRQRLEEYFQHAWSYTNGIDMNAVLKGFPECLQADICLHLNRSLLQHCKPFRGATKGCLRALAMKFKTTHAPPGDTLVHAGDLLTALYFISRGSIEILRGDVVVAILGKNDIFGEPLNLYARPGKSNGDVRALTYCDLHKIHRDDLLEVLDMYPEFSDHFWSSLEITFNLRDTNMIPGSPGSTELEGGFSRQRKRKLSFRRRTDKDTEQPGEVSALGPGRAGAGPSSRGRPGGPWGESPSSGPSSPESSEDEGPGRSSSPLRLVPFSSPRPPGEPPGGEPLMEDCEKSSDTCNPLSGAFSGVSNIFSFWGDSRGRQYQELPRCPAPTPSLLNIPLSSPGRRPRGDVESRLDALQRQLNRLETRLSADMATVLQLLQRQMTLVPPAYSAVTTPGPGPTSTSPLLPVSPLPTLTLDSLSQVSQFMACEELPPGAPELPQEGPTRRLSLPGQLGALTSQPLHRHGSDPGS

| SMILES | IC50 [1] [mM] | IC50 [2] [mM] |
| --- | --- | --- |
| C[C@H]1CN(C[C@H](Cc2ccccc2)C(=O)NCC(=O)O)CC[C@@]1(C)c1cccc(O)c1 [ADL 8-2698] | 0.794 | – |
| O=C(O)c1ccc(-n2nc(-c3ccccc3O)nc2-c2ccccc2O)cc1 [CHEBI:49005] | – | 3.98 |
